Experimental findings from patent publication US7582428B2, “Methods and compositions for identifying anti-HCV agents” (priority 2003, dated 2009) are described below.

One assay addresses NS4B-GFP (Hepatitis C virus genotype 1b, UniProt Q9WMX2). Format: binding, HCV.
For another assay, the target named is T1, GST-NS4B (Hepatitis C virus genotype 1b, UniProt Q9WMX2).
T1 construct: wild type NS4B and the four NBM mutants were fused in frame with N-terminal Glutathione-S Transferase (GST) tags and assayed; made in house; host or cells: E. coli BL21 (pDEST15)
T1 sequence (Q9WMX2 1712-1972 limits assumed): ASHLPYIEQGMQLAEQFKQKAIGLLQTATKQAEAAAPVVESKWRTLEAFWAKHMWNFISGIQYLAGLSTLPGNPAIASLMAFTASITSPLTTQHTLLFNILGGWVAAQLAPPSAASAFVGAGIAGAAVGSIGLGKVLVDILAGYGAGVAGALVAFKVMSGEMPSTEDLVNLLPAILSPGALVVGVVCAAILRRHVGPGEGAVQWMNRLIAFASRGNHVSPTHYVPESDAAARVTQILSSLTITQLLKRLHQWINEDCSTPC
Briefly: RNA binding assay. Also on record: species or system HCV. The note with it: 5 mM nucleotide; compared with GTP-γ-S. How it is done:
RNA binding assay. 1 μg of purified protein was incubated for an hour at 37° C. in a 50 μl reaction mixture containing ^32P-labeled in vitro transcribed HCV RNA (prepared by using Sca I-linearized Bart79I plasmid (wild type HCV replicon (3)) as template, T7 RNA polymerase, and Riboprobe®/Promega, according to the manufacturer's protocol), binding buffer (10 mM DTT, 10 mM Na HEPES (pH 7.4), 33 mM NaCl, 0.1 mM EDTA, 10 mM MgCl2) and 5 mM of either GTP-γ-S or GDP (Sigma). 50 μl of tRNA pre-coated glutathione-agarose beads (Sigma) were then added, followed by 1 hour incubation at 4° C. to allow binding of GST to the beads. Samples were then washed three times in the binding buffer (in the absence of nucleotides). Aliquots were finally subjected to liquid scintillation counting for measuring bound RNA. Control incubations performed with reaction mixture prepared as above but with omission of T7 RNA polymerase were run in parallel and used for background subtraction.

As to `[N-]=[N+]=Nc1ccc(NP(=O)(O)OP(=O)(O)OP(=O)(O)OC[C@H]2O[C@@H](n3cnc4c(N)ncnc43)[C@H](O)[C@@H]2O)cc1` [ATP, ATP-γ4-azidoanilide], the “labeling of NS4B-GFP by 32P-labeled photoactivatable nucleotide” value on NS4B-GFP was “significantly less efficient than GTP binding”.
With `Nc1nc2c(ncn2[C@@H]2O[C@H](COP(=O)(O)OP(=O)(O)O)[C@@H](O)[C@H]2O)c(=O)[nH]1` [GDP], the “HCV RNA binding of GST-NS4B in the presence of guanyl nucleotide” value on GST-NS4B is on record as “dramatically increased”.
With `[N-]=[N+]=Nc1ccc(NP(=O)(O)OP(=O)(O)OP(=O)(O)OC[C@H]2O[C@@H](n3cnc4c(=O)[nH]c(N)nc43)[C@H](O)[C@@H]2O)cc1` [GTP, GTP-γ-4-azidoanilide], the “labeling of NS4B-GFP by 32P-labeled photoactivatable nucleotide” value on NS4B-GFP is recorded as “specifically labeled”.
Regarding `Nc1nc2c(ncn2[C@@H]2O[C@H](COP(=O)(O)OP(=O)(O)OP(O)(O)=S)[C@@H](O)[C@H]2O)c(=O)[nH]1` [GTPγS], the “binding of labeled GTP in the presence of cold competitor nucleotide” value on NS4B-GFP is reported as “progressively decreased”.
